Results taken from ChEMBL document CHEMBL1201862, “PubChem BioAssay data set” (2004).
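Briefly, cells in 96-well plates were exposed to five compound concentrations for 48 h, and endpoints were estimated by linear interpolation. GI50 is the concentration that inhibits growth by half.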 The source made the active and inactive calls. No stated cut-off is given here; in the data, active = GI50 up to about 1.1 µM and inactive = higher.

Columns and labels:
Experiment in all cases: NCI anticancer screen, dose series, 48 h
ACHN = test system: ACHN
HCC 2998 = test system: HCC 2998
IGROV-1 = test system: IGROV-1
KM12 = test system: KM12
Malme-3M = test system: Malme-3M
NCI-H460 = test system: NCI-H460
NCI-H522 = test system: NCI-H522
OVCAR-8 = test system: OVCAR-8
RXF 393 = test system: RXF 393
UACC-257 = test system: UACC-257
UACC-62 = test system: UACC-62
CCRF-CEM = test system: CCRF-CEM
LOX IMVI = test system: LOX IMVI
M14 = test system: M14

Measured: GI50

C=C(CCCO)[C@@H]1CC[C@@](C)(O)[C@H]1C
inactive: ACHN > 100 µM | HCC 2998 > 100 µM | IGROV-1 > 100 µM | KM12 > 100 µM | Malme-3M > 100 µM | NCI-H460 > 100 µM | NCI-H522 > 100 µM | OVCAR-8 > 100 µM | RXF 393 > 100 µM | UACC-257 > 100 µM | UACC-62 > 100 µM

COc1cc(/C=C2\C(=O)N(C(=O)Cc3ccccc3)N=C2C)cc(OC)c1OC
inactive: ACHN > 100 µM | CCRF-CEM > 100 µM | HCC 2998 > 100 µM | KM12 > 100 µM | LOX IMVI > 100 µM | M14 > 100 µM | Malme-3M > 100 µM | NCI-H460 > 100 µM | NCI-H522 > 100 µM | OVCAR-8 > 100 µM | UACC-257 > 100 µM

O=C(CCC(=O)Nc1ccc(Cl)c(Cl)c1)CC(=O)c1ccc(Br)cc1
inactive: ACHN 71.8 µM | CCRF-CEM > 100 µM | IGROV-1 > 100 µM | KM12 > 100 µM | LOX IMVI > 100 µM | M14 > 100 µM | Malme-3M > 100 µM | NCI-H522 > 100 µM | OVCAR-8 > 100 µM | RXF 393 > 100 µM | UACC-257 49.4 µM | UACC-62 36.2 µM

CC(=O)NC(CCCCNC(=O)OCc1ccccc1)C(=O)NCc1ccccc1 (stereo not given)
inactive: ACHN > 100 µM | CCRF-CEM > 100 µM | HCC 2998 > 100 µM | IGROV-1 > 100 µM | KM12 > 100 µM | LOX IMVI > 100 µM | M14 > 100 µM | Malme-3M > 100 µM | NCI-H460 > 100 µM | NCI-H522 > 100 µM | OVCAR-8 > 100 µM | RXF 393 > 100 µM | UACC-257 > 100 µM | UACC-62 > 100 µM

O=C(/C=C/c1ccccc1F)C(c1ccccc1)c1ccccc1
inactive: ACHN 2.56 µM | CCRF-CEM 2.31 µM | IGROV-1 10.8 µM | KM12 3.95 µM | LOX IMVI 1.71 µM | M14 2.62 µM | Malme-3M 10.8 µM | NCI-H522 2.62 µM | UACC-257 4.82 µM | UACC-62 2.08 µM

O=C(Cc1nc2ccccc2o1)C(=O)Nc1ccc(Cl)cc1Cl
inactive: ACHN > 100 µM | HCC 2998 > 100 µM | IGROV-1 > 100 µM | M14 > 100 µM | Malme-3M > 100 µM | NCI-H460 > 100 µM | OVCAR-8 > 100 µM | RXF 393 > 100 µM | UACC-257 > 100 µM | UACC-62 > 100 µM

Nc1ccc(C(=O)NN2C(=O)C(Cl)C2c2ccccc2)cc1 (stereo not given)
inactive: ACHN > 100 µM | CCRF-CEM > 100 µM | HCC 2998 > 100 µM | IGROV-1 > 100 µM | KM12 > 100 µM | LOX IMVI > 100 µM | M14 > 100 µM | Malme-3M > 100 µM | NCI-H460 > 100 µM | NCI-H522 > 100 µM | OVCAR-8 > 100 µM | UACC-257 > 100 µM | UACC-62 > 100 µM

O=C(c1ccccc1)[C@@H]1C[C@H](Sc2ccccc2)c2cc(Cl)ccc2N1
inactive: ACHN 29.2 µM | HCC 2998 20.5 µM | IGROV-1 32.3 µM | KM12 57.5 µM | LOX IMVI 23.5 µM | M14 28.2 µM | Malme-3M 32.4 µM | NCI-H460 26.5 µM | NCI-H522 22.1 µM | OVCAR-8 23.4 µM | RXF 393 6.64 µM | UACC-257 17.1 µM | UACC-62 19.5 µM

CCOC(=O)Nc1ccc(S(=O)(=O)I)cc1.CCOC(=O)Nc1ccc(S(=O)(=O)I)cc1.CNC(=O)N=O.NC(=O)OCCCl
inactive: ACHN > 100 µM | CCRF-CEM 74.8 µM | HCC 2998 > 100 µM | IGROV-1 > 100 µM | KM12 > 100 µM | LOX IMVI > 100 µM | M14 > 100 µM | Malme-3M 49.8 µM | NCI-H460 > 100 µM | OVCAR-8 > 100 µM | UACC-257 74.6 µM | UACC-62 73.6 µM

C/C(C=O)=C1\C(O)C[C@]1(C)C1CC(C)(C)CC1O (stereo not given in full)
inactive: ACHN > 100 µM | CCRF-CEM 26.7 µM | HCC 2998 > 100 µM | KM12 > 100 µM | LOX IMVI > 100 µM | M14 47.3 µM | Malme-3M > 100 µM | NCI-H460 > 100 µM | NCI-H522 32 µM | OVCAR-8 > 100 µM | RXF 393 > 100 µM | UACC-257 > 100 µM

CN(C)c1ccc(N=O)c(O)c1.CN(C)c1ccc(N=O)c(O)c1.[SiH4]
inactive: ACHN 2.67 µM | CCRF-CEM 4.35 µM | HCC 2998 15.4 µM | IGROV-1 20.9 µM | KM12 14.6 µM | LOX IMVI 5.92 µM | M14 11.7 µM | Malme-3M 14.1 µM | NCI-H522 1.53 µM | OVCAR-8 12.9 µM | UACC-257 14 µM | UACC-62 8.49 µM
